Measurements: publication PMC9964746, “Mechanism of Action and Structure–Activity Relationships of Tetracyclic Small Molecules Acting as Universal Positive Allosteric Modulators of the Cholecystokinin Receptor” (Membranes, 2023)
“And” between values parts separate entries of the source, which are not always exact repeats. Equal values may be shown once.

What was measured:
Format in all cases: cell-based
CCK1R [1] = molecular target: T1, CCK1R (Homo sapiens, UniProt P32238); assay: IP-One accumulation TR-FRET assay, PAM format, HEK-293 CCK1R cells; parameters: expressed in transfected cells; host or cells: HEK-293; conditions: for Emax: HEK293, relative to CCK control; for Emax / CCK1R PAM (IP-One) Score (activity score = normalized Emax × pEC50) / EC50: HEK-293 CCK1R cells; for Emax / CCK1R PAM (IP-One) Score (activity score = normalized Emax × pEC50): PAM format; for Emax / EC50: average ± SD; for EC50: PAM format with EC20 CCK; for CCK1R IP-One activity (in words): PAM and agonist formats
T1 sequence (P32238 1-428): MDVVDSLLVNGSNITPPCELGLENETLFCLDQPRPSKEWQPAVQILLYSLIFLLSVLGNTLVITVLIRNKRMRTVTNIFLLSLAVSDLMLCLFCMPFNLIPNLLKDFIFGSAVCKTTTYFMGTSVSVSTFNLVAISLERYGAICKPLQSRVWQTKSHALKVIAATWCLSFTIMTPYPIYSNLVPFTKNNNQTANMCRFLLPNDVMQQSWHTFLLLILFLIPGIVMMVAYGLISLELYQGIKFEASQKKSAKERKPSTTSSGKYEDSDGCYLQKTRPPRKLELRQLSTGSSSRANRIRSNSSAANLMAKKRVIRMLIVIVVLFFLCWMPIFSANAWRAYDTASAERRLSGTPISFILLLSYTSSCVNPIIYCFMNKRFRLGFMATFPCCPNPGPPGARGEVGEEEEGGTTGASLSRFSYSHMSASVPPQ
Experimental: (§1) For structure–activity relationship studies, we performed myo-inositol-1-phosphate (IP-One) accumulation assays with TR-FRET technology applied to the HEK-293 cell line overexpressing CCK1Rs, as we had described in our high throughput screening effort. In brief, thawed cryopreserved cell stocks were re-suspended in IP-One assay media consisting of phenol-red free DMEM (Corning, Corning, NY, USA, #17-205-CV) with 10% FBS, 1% penicillin (10,000 units)/streptomycin (10 mg) (Pen/Strep, Thermo Fisher Scientific, Waltham, MA, USA, Gibco #15140122), and 1% L-glutamine (200 mM) (Gibco #25030081) and diluted to required cell densities. Then, the cell suspension was dispensed into a 1536-well tissue culture microplate (Corning, #3727), and the plate was incubated overnight at 37 °C and 5% CO^2. After 16–20 h, DMSO or compounds were added with an Echo liquid handler (Labcyte, San Jose, CA, USA), resulting in a top final compound concentration of 50 µM diluted 2-fold for 16-point dose–responses. For the positive allosteric modulator (PAM) format, orthosteric stimulator (CCK) dilutions for control wells were prepared in assay media containing 150 mM lithium chloride (LiCl, 50 mM final, Sigma-Aldrich, St Louis, MO, USA, #L7026). After a 30 min incubation of test compounds at 37 °C and 5% CO2, orthosteric stimulator dilutions (for PAM format) or equivalent dilutions of DMSO (for agonist format) were added to designated wells using BioRaptr (Beckman Coulter, Brea, CA, USA). In addition, CCK control ligand dilutions were included on each test plate. After that, the plate was incubated for 1 h at 37 °C and 5% CO^2 and equilibrated to room temperature. Detection reagents from the IP-One Gq detection kit from Cisbio (Cisbio US Inc., Bedford, MA, USA, #62IPAPEJ) were added, and after 1 h at RT, IP-One content was measured with a PHERAstar FSX microplate reader (BMG Labtech, Ortenberg, Germany). Control ligand dose–responses were analyzed using GraphPad Prism 9.3.1 (San Diego, CA, USA) to validate adequate control and test well concentrations for positive allosteric modulation (PAM) and agonist formats. Dose–response curves were performed as 16-point 2-fold dilutions in duplicates in at least three independent experiments. Large data sets were uploaded and analyzed with CBIS (Chemical and Biology Information System software, ChemInnovation Software, Inc., San Diego, CA, USA). Further data analysis for detailed SAR studies was conducted using the D360 software (Certara).
(§2) The potency and efficacy data for these compounds were used to calculate their activity scores using the following formula: Activity Score = normalized Emax × pEC50. Normalized Emax represents the efficacy of the compound as a fractional response relative to that of the CCK control ligand. pEC50 represents the positive logarithmic value of compound EC50 concentrations in (M).

[2] = molecular target: T2, vasopressin-2 receptor (AVP2R) (Homo sapiens, UniProt P30518); assay: AVP2R cAMP HTRF accumulation assay; conditions: for AVP2R PAM (cAMP) Score (activity score = normalized Emax × pEC50): PAM format; for EC50 / Emax: PAM format with vasopressin, original hits: agonist and PAM data combined, average ± SD
T2 construct: expressed in transfected cells; host or cells: CHO-K1 (PAM format); HEK-293 (agonist format)
T2 sequence (P30518 whole entry): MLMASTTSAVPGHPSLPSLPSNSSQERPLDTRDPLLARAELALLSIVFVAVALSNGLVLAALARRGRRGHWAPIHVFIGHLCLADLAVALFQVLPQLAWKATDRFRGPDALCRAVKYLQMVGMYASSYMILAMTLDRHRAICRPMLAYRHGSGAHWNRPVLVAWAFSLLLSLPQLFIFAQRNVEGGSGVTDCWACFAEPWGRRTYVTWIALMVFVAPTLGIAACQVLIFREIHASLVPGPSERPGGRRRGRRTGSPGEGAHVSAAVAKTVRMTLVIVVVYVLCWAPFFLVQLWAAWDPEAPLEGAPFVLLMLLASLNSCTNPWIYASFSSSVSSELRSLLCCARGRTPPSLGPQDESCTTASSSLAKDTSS
Experimental: Possible off-target biological effects. […] Here, we tested them at the vasopressin-2 receptor (AVP2R), representing a class A GPCR structurally related to CCK1R, which is coupled to Gs. The activity at AVP2R was tested using AVP2R-overexpressing CHO-K1 (PAM format) or HEK-293 (agonist format) cells, stimulating the cells with vasopressin. Original hits were tested in both agonist and PAM formats. Since all recognized compound responses were present in both formats, we continued to screen analogs in only the PAM format (also able to capture agonist effects) in CHO-K1 AVP2R cells for potential enhanced sensitivity. The dose–response data sets for original hits were combined, as the PAM and agonist effects were indistinguishable. In brief, arginine vasopressin (AVP) orthosteric stimulator dilutions and ligand and compound dose–response titrations in DMSO were transferred onto a 1536-well plate (Corning #3725) using an Echo liquid handler (Labcyte). Thawed cryopreserved cell stocks were diluted in stimulation buffer consisting of HBSS (Hank’s Balanced Salt Solution with Ca^2+ and Mg^2+, Gibco #24020117), 5 mM HEPES (hydroxyethyl piperazineethanesulfonic acid), 0.5 mM IBMX (3-isobutyl-1-methylxanthine, Sigma-Aldrich), and 0.075% BSA (7.5% DTPA-purified bovine serum albumin, PerkinElmer). The resulting cell suspension was added to the microplate and incubated with test compounds at room temperature for 30 min. Then, the detection reagents from the Cisbio cAMP Gs Dynamic HTRF detection kit were added. The plate was kept at room temperature for 30 min and read on a PHERAstar FSX microplate reader. Dose–response curves were performed as 16-point 2-fold dilutions in duplicate in at least two independent experiments.

CCK1R [3] = molecular target: T1, CCK1R; assay: IP-One accumulation TR-FRET assay, agonist format, HEK-293 CCK1R cells; parameters: expressed in transfected cells; host or cells: HEK-293; conditions: for Emax: HEK293, relative to CCK control, read-out: CCK1R Ago (IP-One) Emax; for Emax / EC50: average ± SD; for EC50: read-out: CCK1R Ago (IP-One) EC50
Experimental: as §1, §2

SMILES	Emax (CCK1R [1])	CCK1R PAM (IP-One) Score (activity score = normalized Emax × pEC50) (CCK1R [1])	EC50 (CCK1R [1])	AVP2R PAM (cAMP) Score (activity score = normalized Emax × pEC50) ([2]; CHO-K1 AVP2R cells)	EC50 ([2]; CHO-K1 AVP2R cells)	Emax ([2]; CHO-K1 AVP2R cells)	CCK1R Ago (IP-One) Score (activity score = normalized Emax × pEC50) (CCK1R [3])	Emax (CCK1R [3])	CCK1R IP-One activity (in words) (CCK1R [1])	EC50 (CCK1R [3])	Emax ([2]; CHO-K1, CHO-K1 AVP2R cells)
CN1CCN(c2ncnc3c2sc2nc(N4CCOCC4)c4c(c23)CCCC4)CC1 [CMP-19]	51 ± 43%	1.9 and 1.94	18.2 ± 8.6 µM	–	–	–	0	0%	–	–	–
C=CCNc1ncnc2c1sc1nc(N3CCOCC3)c3c(c12)CCCC3 [CMP-50]	0%	0	–	0	–	0%	0	0%	None of these analogs showed any CCK1R activity	–	–
Sc1nnnc2c1sc1nc(N3CCOCC3)c3c(c12)CCCC3 [CMP-52]	0%	0	–	–	–	–	0	0%	displayed no effects	–	–
CCCc1nc2oc3c(NCCCN(CC)CC)ncnc3c2c2c1CCCC2 [CMP-36]	25 ± 10%	1.32	3.3 ± 5.4 µM	1.41	6.1 ± 2.8 µM	27 ± 20%	0	–	–	–	–
CN1CCN(c2ncnc3c2sc2nc(N4CCCCC4)c4c(c23)CCCC4)CC1 [CMP-31]	35 ± 14%	1.5 and 1.54	29.6 ± 1.8 µM	1.26	5.4 ± 1.7 µM	24 ± 3%	0	0%	–	–	–
OCCNc1ncnc2c1sc1nc(N3CCOCC3)c3c(c12)CCCC3 [CMP-49]	0%	0	–	0	–	–	0	0%	None of these analogs showed any CCK1R activity	–	0%
CN(C)CCNc1ncnc2c1sc1nc(-c3ccccc3)c3c(c12)CCCC3 [CMP-14]	44 ± 10%	2.17	8.9 ± 1.7 µM	3.0 and 2.97	4.7 ± 4.1 µM	56 ± 33%	0.72	17 ± 5%	–	29.7 ± 8 µM	–
CCCc1nc2oc3c(N4CCN(CCO)CC4)ncnc3c2c2c1CCCC2 [CMP-30]	36 ± 16%	1.55	27.1 ± 10.7 µM	1.52	5.9 ± 3.8 µM	29%	0	–	–	–	–

Second part, led by results:

Emax (CCK1R [1])	CCK1R PAM (IP-One) Score (activity score = normalized Emax × pEC50) (CCK1R [1])	EC50 (CCK1R [1])	AVP2R PAM (cAMP) Score (activity score = normalized Emax × pEC50) ([2]; CHO-K1 AVP2R cells)	EC50 ([2]; CHO-K1 AVP2R cells)	Emax ([2]; CHO-K1 AVP2R cells)	CCK1R Ago (IP-One) Score (activity score = normalized Emax × pEC50) (CCK1R [3])	Emax (CCK1R [3])	CCK1R IP-One activity (in words) (CCK1R [1])	EC50 (CCK1R [3])	SMILES	Emax ([2]; CHO-K1, CHO-K1 AVP2R cells)
52 ± 36%	2.2 and 2.23	11.2 ± 4.2 µM	1.4 and 1.35	12.6 ± 7.9 µM	28 ± 14%	0	–	–	–	CC(C)Cc1nc2oc3c(NCCCN(C)C)ncnc3c2c2c1CCC2 [CMP-13]	–
43 ± 21%	2.0 and 1.96	12.7 ± 5.5 µM	2.0 and 1.99	11.8 ± 14 µM	40 ± 17%	0	–	–	–	CCCc1nc2sc3c(NCCCN(C)C)ncnc3c2c2c1CCCC2 [CMP-18]	–
43 ± 3%	2.04	17.8 ± 6.2 µM	2.97	7.3 ± 3.3 µM	58 ± 15%	0	–	–	–	CC(C)Cc1nc2oc3c(N4CCNCC4)ncnc3c2c2c1CCCC2 [CMP-15]	–
–	–	–	–	–	–	0	0%	showed no agonist or PAM activity	–	CN(C)CCCNc1ncnc2c1sc1nc(N3CCOCC3)c3c(c12)CCC3 [CMP-43]	–
0%	0	–	0	–	0%	0	0%	displayed no effects	–	C/C(Br)=C\CSc1ncnc2c1sc1nc(N3CCOCC3)c3c(c12)CCCC3 [CMP-44]	–
–	–	–	0	–	0%	0	0%	significantly diminished responses	–	c1nc(N2CCCC2)c2sc3nc(N4CCOCC4)c4c(c3c2n1)CCCC4 [CMP-64]	–
39 ± 11%	1.9 and 1.87	12.2 ± 4.6 µM	2.9 and 2.92	2.7 ± 0.7 µM	52 ± 4%	2.76	60 ± 4.5%	–	26.9 ± 1.1 µM	NCCNc1ncnc2c1sc1nc(N3CCCCC3)c3c(c12)CCCC3 [CMP-22]	–
48 ± 11%	2.4 and 2.39	8 ± 2.1 µM	1.6 and 1.61	6.5 ± 4.2 µM	31 ± 2%	0	–	–	–	CCCc1nc2sc3c(NCCN(CC)CC)ncnc3c2c2c1CCCC2 [CMP-7]	–
